Marks after values point to notes of the source that are not given here.
Key:
[1] = system: NF-kBp65; assay: Nuclear translocation of NF-kBp65 in TNFα-treated 3T3-L1 adipocytes; type: cell-based, murine; conditions: three or 24 hours following TNFα
Procedure: Cell Culture and Treatment—Following differentiation 3T3-L1 adipocytes were maintained in post-differentiation medium for an additional 40 days. […] Hops derivatives and the positive control pioglitazone were tested at concentrations of 2.5, and 5.0 μg/ml. Test materials were added 1 hour prior to and nuclear extracts were prepared three and 24 hours following treatment with TNFα.
ELISA—3T3-L1 adipocytes were maintained in growth media for 40 days following differentiation. Nuclear NF-kBp65 was determined using the TransAM™ NF-kB kit from Active Motif (Carlsbad, Calif.) was used with no modifications. Jurkat nuclear extracts provided in the kit were derived from cells cultured in medium supplemented with 50 ng/ml TPA (phorbol, 12-myristate, 13 acetate) and 0.5 μM calcium ionophore A23187 for two hours at 37° C. immediately prior to harvesting.
Protein assay—Nuclear protein was quantified using the Active Motif Fluorescent Protein Quantification Kit.
Statistical Analysis—Comparisons were performed using a one-tailed Student's t-test. The probability of a type I error was set at the nominal five percent level.

[2] = system: 3T3-L1 adipocytes; assay: Adiponectin secretion from TNFα-treated 3T3-L1 adipocytes; type: cell-based, murine
Procedure: For two days, the cells were allowed grow to reach confluence. […] (3) 0.5 μM dexamethasone and (4) 10 μg/ml insulin (MDI medium). […] Adiponectin Assay—The adiponectin secreted into the medium was quantified using the Mouse Adiponectin Quantikine® Immunoassay kit with no modifications (R&D Systems, Minneapolis, Minn.). […] Statistical Calculations and Interpretation—All assays were preformed in duplicate. […] Differences among the doses and test agents were determined using the Student's t-test without correction for multiple comparisons; the nominal five percent probability of a type I error was selected.

[3] = system: 3T3-L1 adipocytes; assay: IL-6 secretion in LPS/3T3-L1 adipocytes; type: cell-based, murine; conditions: 100 ng LPS/ml
[4] = system: A549 pulmonary epithelial cells; assay: PGE2 biosynthesis in A549 cells stimulated by mite dust allergen; type: cell-based, human; conditions: 10 μg/ml, mite allergen 1000 ng/ml, 18 h
Procedure: The filtrate was termed mite dust allergen and used to test for induction of PGE2 biosynthesis in A549 pulmonary epithelial cells.
Mite allergen was added to the culture medium to achieve a final concentration of 1000 ng/ml. Eighteen hours later, the media were sampled for PGE2 determination.

[5] = system: 3T3-L1 adipocytes; assay: Lipogenesis in 3T3-L1 adipocytes (Oil Red O / BODIPY); type: cell-based, murine; conditions: for adipogenic response of hops compounds: 10, 5, 4 or 2 μg/ml, spent hops 50 μg/ml
Procedure: Prior to experiments, cells were cultured in DMEM containing 10% FBS-HI added 50 units penicillin/ml and 50 μg streptomycin/ml, and maintained in log phase prior to experimental setup. Cells were grown in a 5% CO2 humidified incubator at 37° C. Components of the pre-confluent medium included (1) 10% FBS/DMEM containing 4.5 g glucose/L; (2) 50 U/ml penicillin; and (3) 50 μg/ml streptomycin. Growth medium was made by adding 50 ml of heat inactivated FBS and 5 ml of penicillin/streptomycin to 500 ml DMEM. This medium was stored at 4° C. Before use, the medium was warmed to 37° C. in a water bath.
3T3-T1 cells were seeded at an initial density of 6×10^4 cells/cm^2 in 24-well plates. For two days, the cells were allowed grow to reach confluence. Following confluence, the cells were forced to differentiate into adipocytes by the addition of differentiation medium; this medium consisted of (1) 10% FBS/DMEM (high glucose); (2) 0.5 mM methylisobutylxanthine; (3) 0.5 μM dexamethasone and (4) 10 μg/ml insulin (MDI medium). After three days, the medium was changed to post-differentiation medium consisting of 10 μg/ml insulin in 10% FBS/DMEM.
AcE was partially dissolved in dimethyl sulfoxide (DMSO) and added to the culture medium to achieve a concentration of 50 μg/ml at Day 0 of differentiation and throughout the maturation phase (Days 6 or 7 (D6/7)). Whenever fresh media were added, fresh test material was also added. DMSO was chosen for its polarity and the fact that it is miscible with the aqueous cell culture media.
Oil Red O Staining—Triglyceride content of D6/D7-differentiated 3T3-L1 cells was estimated with Oil Red O according to the method of Kasturi and Joshi [Kasturi, R. and Joshi, V. C. […] Monolayer cells were washed with PBS (phosphate buffered saline, Mediatech) and fixed with 10% formaldehyde for ten minutes. Fixed cells were stained with an Oil Red O working solution of three parts 0.6% Oil Red O/isopropanol stock solution and two parts water for one hour and the excess stain was washed once with water. The resulting stained oil droplets were extracted from the cells with isopropanol and quantified by spectrophotometric analysis at 540 nm (MEL312e BIO-KINETICS READER, Bio-Tek Instruments, Winooski, Vt.).
Briefly, media were removed and cells were washed once with non-sterile PBS. A stock 1000× BODIPY/DMSO solution was made by dissolving 1 mg BODIPY in 1 ml DMSO (1,000 μg BODIPY/ml). […] After 15 min on an orbital shaker (DS-500, VWR Scientific Products, South Plainfield, N.J.) at ambient temperature, the cells were washed with 100 μl PBS followed by the addition of 100 μl PBS for reading for spectrofluorometric determination of BODIPY incorporation into the cells. […]

[6] = system: 3T3-L1 adipocytes; assay: Adiponectin secretion in LPS/3T3-L1 adipocytes; type: cell-based, murine; conditions: for adiponectin secretion: LPS, any dose tested; for % Stimulation (maximum) of adiponectin secretion: 0.625 μg/ml
[7] = system: 3T3-L1 adipocytes; assay: IL-6 secretion from TNFα-treated 3T3-L1 adipocytes; type: cell-based, murine; conditions: 10 ng TNFα/ml
Procedure: Interleukin-6 Assay—The IL-6 secreted into the medium was quantified using the Quantikine® Mouse IL-6 Immunoassay kit with no modifications (R&D Systems, Minneapolis, Minn.). […] All supernatant media samples were assayed undiluted.
Statistical Calculations and Interpretation—All assays were preformed in duplicate. […] Differences among the doses were determined using the student's t-test without correction for multiple comparisons; the nominal five percent probability of a type I error (one-tail) was selected.

[8] = Non-fasting serum glucose and insulin in db/db diabetic mice; type: in vivo, mouse; conditions: three consecutive days, gavage
Procedure: The Model—Male, C57BLKS/J m^+/m^+Lepr^db (db/db) mice were used to assess the potential of the test materials to reduce fasting serum glucose or insulin concentrations. This strain of mice is resistant to leptin by virtue of the absence of a functioning leptin receptor.
Testing Procedure—Test substances were administered daily by gavage in 0.2% Tween-80. Serum was collected from the retroorbital sinus before the initial dose and ninety minutes after the third and final dose. Non-fasting serum glucose was determined enzymatically by the mutarotase/glucose oxidase method and serum insulin was determined by a mouse specific ELISA.
The Model—Male, C57BLKS/J m+/m+ Leprdb (db/db) mice were used to assess the potential of the test materials to reduce fasting serum glucose or insulin concentrations. This strain of mice is resistant to leptin by virtue of the absence of a functioning leptin receptor.
Testing Procedure—Test substances were administered daily by gavage in 0.2% Tween-80. Serum was collected from the retroorbital sinus before the initial dose and ninety minutes after the fifth and final dose. Non-fasting serum glucose was determined enzymatically by the mutarotase/glucose oxidase method and serum insulin was determined by a mouse specific ELISA.

[9] = target: PI3K gamma (Homo sapiens, UniProt P48736); assay: KinaseProfiler Assay; type: biochemical; conditions: 50 μg/ml
[10] = system: 3T3-L1 adipocytes; assay: Adiponectin secretion from insulin-resistant 3T3-L1 adipocytes; type: cell-based, murine
Procedure: 3T3-L1 cells were seeded at an initial density of 1×10^4 cells/cm^2 in 96-well plates. For two days, the cells were allowed grow to reach confluence. Following confluence, the cells were forced to differentiate into adipocytes by the addition of differentiation medium; this medium consisted of (1) 10% FBS/DMEM (high glucose); (2) 0.5 mM methylisobutylxanthine; (3) 0.5 μM dexamethasone and (4) 10 μg/ml insulin (MDI medium). From Day 3 through Day 5, the medium was changed to post-differentiation medium consisting of 10 μg/ml insulin in 10% FBS/DMEM.
Briefly, on Day 6, cells were maintained in serum-free media containing 0.5% bovine serum albumin (BSA) for three hours and then treated with 1 μg insulin/ml plus solvent or insulin plus test material. […] Twenty-four hours later, the supernatant medium was sampled for adiponectin determination.
Adiponectin Assay—The adiponectin secreted into the medium was quantified using the Mouse Adiponectin Quantikine® Immunoassay kit with no modifications (R&D Systems, Minneapolis, Minn.).
Statistical Calculations and Interpretation—All assays were preformed in duplicate. […] Differences between the doses were determined using the student's t-test without correction for multiple comparisons; the nominal five percent probability of a type I error was selected. […]

[11] = 10 ng TNFα/ml, listed as indomethacin

Sequence of PI3K gamma (P48736 whole entry): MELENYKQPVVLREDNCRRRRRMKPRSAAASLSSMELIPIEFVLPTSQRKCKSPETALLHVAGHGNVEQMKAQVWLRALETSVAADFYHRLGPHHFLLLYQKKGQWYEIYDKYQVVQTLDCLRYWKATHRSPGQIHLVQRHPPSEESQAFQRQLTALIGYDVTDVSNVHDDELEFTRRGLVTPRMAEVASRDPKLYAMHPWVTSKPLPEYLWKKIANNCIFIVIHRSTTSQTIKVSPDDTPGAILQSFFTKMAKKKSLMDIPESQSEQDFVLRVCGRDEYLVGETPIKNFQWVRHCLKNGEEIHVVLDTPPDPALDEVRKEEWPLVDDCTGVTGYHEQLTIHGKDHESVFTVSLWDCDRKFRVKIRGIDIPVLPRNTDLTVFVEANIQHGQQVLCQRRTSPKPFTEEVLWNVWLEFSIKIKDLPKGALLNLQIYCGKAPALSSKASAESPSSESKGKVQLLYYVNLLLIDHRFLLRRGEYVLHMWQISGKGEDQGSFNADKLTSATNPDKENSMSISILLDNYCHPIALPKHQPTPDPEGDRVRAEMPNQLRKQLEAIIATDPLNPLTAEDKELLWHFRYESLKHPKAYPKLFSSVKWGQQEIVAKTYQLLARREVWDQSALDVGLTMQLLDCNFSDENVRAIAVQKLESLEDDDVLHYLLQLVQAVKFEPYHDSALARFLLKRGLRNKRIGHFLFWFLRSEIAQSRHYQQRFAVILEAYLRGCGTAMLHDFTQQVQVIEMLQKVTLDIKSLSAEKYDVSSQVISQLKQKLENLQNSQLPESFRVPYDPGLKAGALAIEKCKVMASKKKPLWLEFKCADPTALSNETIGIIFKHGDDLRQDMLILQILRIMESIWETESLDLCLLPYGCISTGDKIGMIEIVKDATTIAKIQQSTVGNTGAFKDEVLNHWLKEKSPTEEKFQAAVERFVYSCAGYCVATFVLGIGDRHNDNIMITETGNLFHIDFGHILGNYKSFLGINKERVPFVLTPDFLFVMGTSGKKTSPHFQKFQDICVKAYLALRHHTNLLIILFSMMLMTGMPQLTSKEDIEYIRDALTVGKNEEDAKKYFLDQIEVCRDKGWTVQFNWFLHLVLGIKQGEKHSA

Compound: CCc1ccc(CCOc2ccc(CC3SC(=O)NC3=O)cc2)nc1 (stereo not shown) [Pioglitazone]
- nuclear NF-kBp65 [1]: did not inhibit
- maximum increase of adiponectin secretion from TNFα solvent control ([2]; 10 ng TNFα/ml): 80%
- Adiponectin Index (maximum over four doses) ([2]; 10 ng TNFα/ml, Example 17): 1.47
- Adiponectin Index Observed ([2]; 1.0 μg/ml, indexed to TNFα control): 1.80
- IL-6 Index ([3]; 5.00 μg/ml (dose providing maximum inhibition)): 0.37*
- inhibition at 5 µg/mL ([3]; Mus musculus, 3T3-L1, 5.00 μg/ml, read-out: % Inhibition (maximum) of IL-6 secretion): 63%

Compound: Beta acids
- Percent PGE2 Inhibition [4]: 83%
- adipogenic response of hops compounds [5]: comparable to indomethacin and troglitazone

Compound: CC(=O)Oc1ccccc1C(=O)O [Aspirin]
- adiponectin secretion [6]: failed to induce adiponectin secretion

Compound: COc1ccc2c(c1)c(CC(=O)O)c(C)n2C(=O)c1ccc(Cl)cc1 [Indomethacin, indomethacin]
- adiponectin secretion ([2]; 0.5 ng TNFα/ml, 50 μg/ml): dose-dependant decrease in adiponectin secretion
- Concentration of maximum adiponectin secretion ([2]; 10 ng TNFα/ml): 5.0 µg/mL
- Concentration of maximum adiponectin secretion [2, 11]: 2.5 µg/mL
- maximum increase of adiponectin secretion from TNFα solvent control [2, 11]: 94%
- Adiponectin/IL-6 ([2]; […], 10 ng TNFα/ml): 2.00*
- IL-6 secretion in the presence of TNFα [7]: no anti-inflammatory effect
- % Inhibition (maximum) of IL-6 secretion ([3]; 5.00 μg/ml): 53* %

Compound: CN(C)C(=N)N=C(N)N [metformin, Metformin]
- lipogenic index ([5]; 50 μg test material/ml, observed): 0.79
- serum glucose relative to controls [8]: decreased both serum glucose and insulin concentrations

Compound: Cc1c(C)c2c(c(C)c1O)CCC(C)(COc1ccc(CC3SC(=O)NC3=O)cc1)O2 (stereo not shown) [Troglitazone]
- % Stimulation (maximum) of adiponectin secretion [6]: 15%
- maximum increase of adiponectin secretion from TNFα solvent control ([2]; 10 ng TNFα/ml): 51%
- inhibition at 10 µg/mL ([3]; Mus musculus, 3T3-L1, 10.0 μg/ml, read-out: % Inhibition (maximum) of IL-6 secretion): 69%

Compound: CC(C)Cc1ccc(C(C)C(=O)O)cc1 (stereo not shown) [ibuprofen]
- % Stimulation (maximum) of adiponectin secretion [6]: 22%
- inhibition at 0.625 µg/mL ([3]; Mus musculus, 3T3-L1, 0.625 μg/ml, read-out: % Inhibition (maximum) of IL-6 secretion): 54%

Compound: COc1cc(O)c(CC=C(C)C)c(O)c1C(=O)/C=C/c1ccc(O)cc1 [xanthohumol]
- PI3K isoform preference [9]: more inhibitory to PI3K-γ than to PI3K-β or PI3K-δ
- adipogenic response of hops compounds [5]: comparable to indomethacin and troglitazone

Compound: O=C(O)c1ccccc1O [salicylic acid]
- adiponectin secretion [6]: failed to induce adiponectin secretion
- IL-6 Index ([3]; 50.0 μg/ml (dose providing maximum inhibition)): 0.52*
- inhibition at 50 µg/mL ([3]; Mus musculus, 3T3-L1, 50.0 μg/ml, read-out: % Inhibition (maximum) of IL-6 secretion): 48%

Compound: CC(C)CCC1=C(O)C(C(=O)C(C)C)=C(O)C(CCC(C)C)(CCC(C)C)C1=O [hexahydrocolupulone]
- adipogenic response of hops compounds [5]: failed to elicit a lipogenic response greater than the solvent controls
- concentration for half maximal adiponectin secretion ([10]; Hofstee plot): 3.2 µg/mL

Compound: CC(C)CCC1=C(O)C(C(=O)C(C)C)=C(O)C(CCC(C)C)(CCC(C)C)C1=O [Hexahydrocolupulone (HHCL)]
- Adiponectin/IL-6 ([10]; 50.0 μg/ml, ratio of indices): 0.60#
